{"source": "patent US7816384B2", "about": "“Method for treating a demyelinating condition” (priority 2000, dated 2010)", "key": {"[1]": {"test_system": "EAE", "settings": "NBQX treatment in EAE; cited from earlier work"}, "[2]": {"test_system": "AT-EAE in female SJL/J mice", "assay": "Adoptive-transfer EAE (AT-EAE), treatment with bepridil or nitrendipine (Example 2)", "type": "in vivo, mouse", "settings": "for difference in average disease scores between vehicle and bepridil groups: bepridil 3 mg/kg from day 3 p.t. (n=14 vs 15); for average difference in disease scores vs vehicle: average over days 13-20 p.t."}, "[3]": {"test_system": "adoptive-transfer EAE in female SJL mice", "assay": "Adoptive-transfer EAE, treatment with amlodipine (Example 1)", "type": "in vivo, mouse", "settings": "two representative animals per group at sampling; clinical index 0-5; control group 2.8", "procedure": "FIG. 1 illustrates the clinical course of adoptive-transfer EAE and the effect of treatment with amlodipine. SJL mice were injected with 3×10^7 MBP-activated cells. Starting from Day 5 post-immunization, mice were treated with amlodipine (30 μg as one daily subcutaneous injection) or vehicle (PBS), until Day 13 (Day 9 of treatment). Data represent mean±s.e.m. differences, at respective time-points, between the vehicle-treated group and the amlodipine-treated group. *=p<0.05; **=p<0.01 (students' unpaired, two-tailed t-test); n=8 per group. Induction of Experimental Autoimmune Encephalomyelitis (EAE). Adoptive-transfer EAE was induced in female SJL mice as described ([…] et al., 1998). In brief, lymph node cells were obtained 10 days after myelin basic protein/Complete Freund's Adjuvant immunization. Cells were cultured for 4 days with 50 μg/ml of myelin basic protein, then 3×10^7 cells/mouse were injected into syngeneic mice via tail veins. Onset of disease occurred after 7-9 days. Animals were graded according to a standard clinical index (0-5). Five days after immunization, animals began treatments with one daily injection of 200 μl of vehicle (PBS), or 30 μg of amlodipine in 200 μl of PBS. Neuropathology. At selected time-points, mice from the control and treated groups were perfused with PBS or glutaraldehyde, and the CNS was prepared for frozen or 1-μm epoxy sections, respectively. […]"}, "[4]": {"settings": "bepridil 3 mg/kg s.c. daily from day 0"}}, "data": [{"compound": "NS(=O)(=O)c1cccc2c1c([N+](=O)[O-])cc1[nH]c(=O)c(=O)[nH]c12", "note": "[NBQX, 1,2,3,4-tetrahydro-6-nitro-2,3-dioxo-benzoquinoxaline-7-sulfonamide]", "values": [{"measurement": "course of disease, loss of oligodendrocytes and axonal damage", "setting": "[1]", "value": "significantly ameliorated the course of the disease and reduced loss of oligodendrocytes and axonal damage"}]}, {"compound": "CC(C)COCC(CN(Cc1ccccc1)c1ccccc1)N1CCCC1", "note": "(stereo not shown) [bepridil]", "values": [{"measurement": "difference in average disease scores between vehicle and bepridil groups", "setting": "[2]; day 13 p.t.", "value": 1.07, "unit": "points"}, {"measurement": "difference in average disease scores between vehicle and bepridil groups", "setting": "[2]; day 14 p.t.", "value": 1.20, "unit": "points"}, {"measurement": "difference in average disease scores between vehicle and bepridil groups", "setting": "[2]; day 15 p.t.", "value": 0.99, "unit": "points"}, {"measurement": "difference in average disease scores between vehicle and bepridil groups", "setting": "[2]; day 16 p.t.", "value": 1.18, "unit": "points"}, {"measurement": "average difference in disease scores between vehicle and bepridil groups", "setting": "[2]; bepridil 3 mg/kg from day 3 p.t., average over days 13-16 p.t.", "value": "−1.11±0.05", "unit": "points"}, {"measurement": "delay of overt disease onset compared with vehicle", "setting": "[2]; [4]", "value": "more than 5 days"}, {"measurement": "average difference in disease scores vs vehicle", "setting": "[2]; [4]", "value": "1.66±0.06", "unit": "points"}, {"measurement": "average difference in disease scores vs vehicle", "setting": "[2]; bepridil 3 mg/kg s.c. daily from day 0, listed as Bepridil", "value": "−1.66±0.06", "unit": "points"}, {"measurement": "reduction of daily average disease score vs vehicle", "setting": "[2]; bepridil 3 mg/kg s.c. daily from day 0, day 13 p.t.", "value": 1.8, "unit": "points"}, {"measurement": "reduction of daily average disease score vs vehicle", "setting": "[2]; bepridil 3 mg/kg s.c. daily from day 0, day 14 p.t.", "value": 2.0, "unit": "points"}, {"measurement": "reduction of daily average disease score vs vehicle", "setting": "[2]; bepridil 3 mg/kg s.c. daily from day 0, day 15 p.t.", "value": 1.45, "unit": "points"}, {"measurement": "reduction of daily average disease score vs vehicle", "setting": "[2]; bepridil 3 mg/kg s.c. daily from day 0, day 16 p.t.", "value": 1.65, "unit": "points"}, {"measurement": "reduction of daily average disease score vs vehicle", "setting": "[2]; bepridil 3 mg/kg s.c. daily from day 0, day 17 p.t.", "value": 1.60, "unit": "points"}, {"measurement": "reduction of daily average disease score vs vehicle", "setting": "[2]; bepridil 3 mg/kg s.c. daily from day 0, day 18 p.t.", "value": 1.60, "unit": "points"}, {"measurement": "reduction of daily average disease score vs vehicle", "setting": "[2]; bepridil 3 mg/kg s.c. daily from day 0, day 19 p.t.", "value": 1.70, "unit": "points"}, {"measurement": "reduction of daily average disease score vs vehicle", "setting": "[2]; bepridil 3 mg/kg s.c. daily from day 0, day 20 p.t.", "value": 1.5, "unit": "points"}]}, {"compound": "CCOC(=O)C1=C(C)NC(C)=C(C(=O)OC)C1c1cccc([N+](=O)[O-])c1", "note": "(stereo not shown) [nitrendipine, ethyl methyl-1,4-dihydro-2,6-dimethyl-4-(m-nitrophenyl)-3,5-pyridinedicarboxylate]", "values": [{"measurement": "average amelioration of clinical impairment vs vehicle", "setting": "[2]; nitrendipine 2.5 mg/kg s.c. daily from day 0, average over days 15-20 p.t.", "value": "−1.77±0.11", "unit": "points"}, {"measurement": "amelioration of clinical impairment (disability score) vs vehicle", "setting": "[2]; nitrendipine 2.5 mg/kg s.c. daily from day 0, day 15 p.t.", "value": 1.5, "unit": "points"}, {"measurement": "amelioration of clinical impairment (disability score) vs vehicle", "setting": "[2]; nitrendipine 2.5 mg/kg s.c. daily from day 0, day 16 p.t.", "value": 1.7, "unit": "points"}, {"measurement": "amelioration of clinical impairment (disability score) vs vehicle", "setting": "[2]; nitrendipine 2.5 mg/kg s.c. daily from day 0, day 17 p.t.", "value": 1.9, "unit": "points"}, {"measurement": "amelioration of clinical impairment (disability score) vs vehicle", "setting": "[2]; nitrendipine 2.5 mg/kg s.c. daily from day 0, day 18 p.t.", "value": 2.25, "unit": "points"}, {"measurement": "amelioration of clinical impairment (disability score) vs vehicle", "setting": "[2]; nitrendipine 2.5 mg/kg s.c. daily from day 0, day 19 p.t.", "value": 1.65, "unit": "points"}, {"measurement": "amelioration of clinical impairment (disability score) vs vehicle", "setting": "[2]; nitrendipine 2.5 mg/kg s.c. daily from day 0, day 20 p.t.", "value": 1.6, "unit": "points"}]}, {"compound": "CCOC(=O)C1=C(COCCN)NC(C)=C(C(=O)OC)C1c1ccccc1Cl", "note": "(stereo not shown) [amlodipine, 3-ethyl-5-methyl-2-(2-aminoethoxymethyl)-4-(2-chlorophenyl)-1,4-dihydro-6-methyl-3,5-pyridinedicarboxylate]", "values": [{"measurement": "average clinical score", "setting": "[3]", "value": 1.3}]}]}
